Data on 1 molecule can be found in EP4711369A1, “1H-[1,2,3]TRIAZOLO[4,5-H]QUINAZOLINE COMPOUNDS AS PROTEIN KINASE INHIBITORS” (Chengdu Cynogen Bio-Pharmaceutical Technology Co., Ltd., priority 2023, dated 2024).

Assay [1] deals with Human ovarian cancer OVCAR3 cells. Description: Assay of cell proliferation (CellTiter-Glo). To be noted: Homo sapiens, OVCAR-3, 144 h, 6 days, read-out: OVCAR3 IC50 of cell proliferation inhibitory activity. It is filed as cell-based. The procedure, abridged:
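OVCAR3 cells, 2000/well in RPMI 1640 with 20% FBS, treated with nine 3-fold dilutions from 10 µM to 0.1 nM (0.5% DMSO) for 6 days at 37 °C. Viability by CellTiter-Glo luminescence; IC50 by four-parameter fit.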
Background: ATP-based viability assays read luminescence as a measure of living cells.

Assay [2] concerns Human ovarian cancer OVCAR-3 cells. The assay is described as follows: OVCAR-3 tumor model. It is filed as in vivo. The conditions noted are these: female NOD-SCID mice, p.o. 5, 10 and 15 mg/kg twice daily, 22 days, Fig. 3. As to the method: Human ovarian cancer OVCAR-3 cells were cultured in RPMI 1640 medium containing 20% FBS at 37 °C and 5% CO2 in an incubator. Matrigel was mixed with serum-free RPMI 1640 medium at a ratio of 1:1, and then the mixture was used to resuspend the OVCAR-3 cancer cells at 2 × 10^7 cells/0.2 ml. Then, the cells were inoculated subcutaneously into the right rib area of female NOD-SCID mice. When the volume of tumors reached approximately 100-150 mm^3, the mice were randomly divided into groups for treatment, with six animals per group. The compound of example I-10 was prepared in a 20% aqueous solution of hydroxypropyl-gamma-cyclodextrin containing an equivalent amount of hydrochloric acid, and administered by oral gavage (p.o.) at dosages of 5, 10, and 15 (mg/kg) twice daily, 8 hours apart, for a total of 22 days. The PF06873600 treatment group was used as a positive control, and the untreated group was given solvent by oral gavage. The tumor volume was measured twice a week using a vernier caliper by measuring the long and short diameters of a tumor. The formula for calculating a tumor volume was: volume (mm^3) = (long diameter (mm) × short diameter (mm) × short diameter (mm)/2. The mice were weighed daily.
The therapeutic effect of a drug was evaluated using the tumor growth inhibition (TGI%).

In another assay the target is CDK9/cyclin T1 (Homo sapiens, UniProt P50750). Description: Assay of kinase activity (ADP-Glo). It is filed as biochemical. The conditions noted are these: kinase inhibitory activity. The procedure, abridged:
(§1)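 Human CDK6/cyclin D3 and CDK9/cyclin T1 preincubated 10 min at 25 °C with compound in 50 mM Hepes, 10 mM MgCl2, 0.01% Brij35, 2 mM DTT, then reacted 60 min at 25 °C with substrate and ATP. ADP formed measured by ADP-Glo luminescence; IC50 from nonlinear concentration-response fitting.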

The target of another assay is CDK6/cyclin D3 (Homo sapiens, UniProt Q00534). Description: Assay of kinase activity (ADP-Glo). The conditions noted are these: kinase inhibitory activity. It is filed as biochemical. Summed up: as §1
CDK6/cyclin D3, sequence (Q00534 whole entry, species assumed): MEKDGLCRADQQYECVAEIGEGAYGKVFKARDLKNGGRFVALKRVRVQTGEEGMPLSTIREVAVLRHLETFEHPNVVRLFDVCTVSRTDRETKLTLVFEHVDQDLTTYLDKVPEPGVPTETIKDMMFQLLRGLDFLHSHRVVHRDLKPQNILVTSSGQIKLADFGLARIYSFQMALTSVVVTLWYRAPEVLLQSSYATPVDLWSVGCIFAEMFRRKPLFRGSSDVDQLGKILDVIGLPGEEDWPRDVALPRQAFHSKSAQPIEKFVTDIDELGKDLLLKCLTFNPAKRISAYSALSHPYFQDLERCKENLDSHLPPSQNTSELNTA
CDK6/cyclin D3, sequence (P30281 whole entry partner, species assumed): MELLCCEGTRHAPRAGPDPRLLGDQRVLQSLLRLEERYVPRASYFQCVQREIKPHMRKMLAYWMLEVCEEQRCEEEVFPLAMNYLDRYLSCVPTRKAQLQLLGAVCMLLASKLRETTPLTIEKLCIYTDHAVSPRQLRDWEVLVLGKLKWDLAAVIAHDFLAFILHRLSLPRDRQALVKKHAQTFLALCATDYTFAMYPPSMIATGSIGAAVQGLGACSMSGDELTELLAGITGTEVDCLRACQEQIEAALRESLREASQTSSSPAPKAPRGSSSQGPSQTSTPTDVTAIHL
Background: ADP-Glo turns the ADP formed in a reaction into a luminescent signal.

A further assay addresses CDK4/cyclin D1 (Homo sapiens, UniProt P11802). Description: Assay of kinase activity (ADP-Glo). The conditions noted are these: kinase inhibitory activity. It is filed as biochemical. Summed up: (§2)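 Kinase preincubated 10 min with compound in 50 mM Hepes, 10 mM MgCl2, 0.01% Brij35, 2 mM DTT, then substrate/ATP added for 60 min at 25 °C. ADP formed measured by ADP-Glo luminescence; IC50 by nonlinear concentration-response fitting.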

The next assay addresses CDK2/cyclin E (Homo sapiens, UniProt P24941). The assay is described as follows: Assay of kinase activity (ADP-Glo). It is filed as biochemical. The conditions noted are these: kinase inhibitory activity, read-out: CDK2/E1 IC50. The procedure, abridged:
as §2

SMILES strings stand for the structures.

CDK4/cyclin D1, sequence (P11802 whole entry, species assumed): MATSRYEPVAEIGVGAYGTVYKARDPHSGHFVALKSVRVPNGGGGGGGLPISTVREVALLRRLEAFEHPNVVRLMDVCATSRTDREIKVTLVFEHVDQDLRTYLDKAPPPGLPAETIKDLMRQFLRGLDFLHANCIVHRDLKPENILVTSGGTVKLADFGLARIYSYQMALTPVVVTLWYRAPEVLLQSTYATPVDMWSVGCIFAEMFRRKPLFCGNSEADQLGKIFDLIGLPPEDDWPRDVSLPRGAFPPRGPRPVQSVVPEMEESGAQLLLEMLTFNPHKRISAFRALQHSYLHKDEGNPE
CDK4/cyclin D1, sequence (P24385 whole entry partner, species assumed): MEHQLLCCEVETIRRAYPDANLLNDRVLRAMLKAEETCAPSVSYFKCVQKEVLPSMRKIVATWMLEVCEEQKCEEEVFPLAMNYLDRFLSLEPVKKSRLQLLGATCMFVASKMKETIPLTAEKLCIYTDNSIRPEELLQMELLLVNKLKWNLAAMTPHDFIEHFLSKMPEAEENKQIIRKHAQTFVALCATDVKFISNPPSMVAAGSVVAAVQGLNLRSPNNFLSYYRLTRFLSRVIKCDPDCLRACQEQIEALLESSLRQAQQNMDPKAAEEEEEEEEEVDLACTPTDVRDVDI
CDK9/cyclin T1, sequence (P50750 whole entry, species assumed): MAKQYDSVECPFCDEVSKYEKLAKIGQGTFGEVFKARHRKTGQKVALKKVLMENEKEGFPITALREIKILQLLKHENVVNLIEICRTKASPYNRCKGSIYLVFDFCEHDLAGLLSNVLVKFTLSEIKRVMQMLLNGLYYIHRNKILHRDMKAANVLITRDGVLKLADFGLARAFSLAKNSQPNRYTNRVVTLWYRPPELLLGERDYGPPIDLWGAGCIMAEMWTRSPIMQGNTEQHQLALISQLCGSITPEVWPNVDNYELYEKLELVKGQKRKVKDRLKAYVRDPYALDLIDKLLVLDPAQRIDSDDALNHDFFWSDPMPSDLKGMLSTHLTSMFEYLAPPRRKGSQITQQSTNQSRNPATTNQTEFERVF
CDK9/cyclin T1, sequence (O60563 whole entry partner, species assumed): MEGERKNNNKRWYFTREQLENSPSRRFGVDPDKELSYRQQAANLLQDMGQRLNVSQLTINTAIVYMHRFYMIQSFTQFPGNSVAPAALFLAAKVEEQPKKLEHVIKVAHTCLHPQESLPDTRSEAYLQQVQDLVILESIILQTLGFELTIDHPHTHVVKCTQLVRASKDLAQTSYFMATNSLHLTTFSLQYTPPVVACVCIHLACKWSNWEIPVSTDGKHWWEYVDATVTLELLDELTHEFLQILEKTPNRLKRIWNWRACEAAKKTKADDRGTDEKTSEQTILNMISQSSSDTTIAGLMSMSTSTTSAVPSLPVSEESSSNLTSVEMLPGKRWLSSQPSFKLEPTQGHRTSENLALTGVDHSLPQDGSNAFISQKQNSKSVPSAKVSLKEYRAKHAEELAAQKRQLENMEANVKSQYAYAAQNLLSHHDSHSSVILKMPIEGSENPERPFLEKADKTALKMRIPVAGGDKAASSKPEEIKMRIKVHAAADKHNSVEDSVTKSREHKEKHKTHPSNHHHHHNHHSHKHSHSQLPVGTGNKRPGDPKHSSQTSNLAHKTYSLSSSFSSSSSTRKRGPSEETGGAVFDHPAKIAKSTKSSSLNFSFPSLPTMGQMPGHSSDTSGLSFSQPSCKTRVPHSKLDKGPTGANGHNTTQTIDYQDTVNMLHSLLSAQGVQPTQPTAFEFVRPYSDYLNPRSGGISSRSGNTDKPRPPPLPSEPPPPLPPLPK

Turning to `CC(C)n1nnc2ccc3cnc(Nc4ccc(C(=O)N5CC[C@H](N(C)C)C5)cc4)nc3c21` [Example I-10, (S)-(3-(Dimethylamino)pyrrolidin-1-yl)(4-((1-isopropyl-1H-[1,2,3]triazolo[4,5-H]quinazolin-8-yl)amino)phenyl)metha none], the IC50 was found to be 16 nM in assay [1]; 2 nM against CDK9/cyclin T1; 4 nM against CDK6/cyclin D3; 0.6 nM at CDK4/cyclin D1; 0.1 nM on CDK2/cyclin E. Besides, the “growth inhibitory effect on the OVCAR-3 tumor model (TGI%)” value in assay [2] was “dose-dependent relationship”.
